Key:
Type in all cases: physicochemical
[1] = Determination of surface tension by Wilhelmy method
Procedure: A compound to be determined that has been weighed is dissolved or suspended in a defined amount of a distilled water. As such, samples of aqueous solutions to be tested containing the compound at various concentrations are prepared, and each of the solutions is adjusted to be 50 ml aliquots.
Surface tension-measuring device (Kruess Inc., Type K12) and the personal computer for control and analysis are started, and a software for determining surface tension (Kruess Inc., K122) is launched. The determination site of the device is subjected to the circulation of the water from a thermostatic chamber to keep the temperature constant at 25° C. […]
Forty ml of a distilled water is poured into the vessel that have been washed, and the vessel is placed into the surface tension-measuring device. […] In this condition, surface tensions are determined. […] When the value of surface tension as determined one minute later is almost constant, then the value is recorded and the determination is stopped.
After the blank determination, 40 ml of a sample of aqueous solutions is poured into the vessel that have been washed, and the vessel is placed into the surface tension-measuring device. […] In this condition, surface tensions are determined. […] When the value of surface tension as determined one minute later is almost constant, then the value is recorded and the determination is stopped. […]

[2] = Ross-Miles Foaming Test (foaming vs pH); conditions: 0.1% w/w in water for injection, 25° C., ISO 696-1975
Procedure: Compound 1 was dissolved in a water for injection (0.1% w/w), and the solution was quantitatively determined for foaming by Ross-Miles Foaming Test. Ross-Miles Foaming Test was conducted according to the method as defined in International Standard ISO 696-1975 except that the determination temperature was set 25° C.

[3] = Storage stability of lyophilized formulation, HPLC of content and decomposed materials
Procedure: After the formulation as prepared according to Example 1 was stored at 50° C. for 2 months, the amounts of decomposed materials produced by hydrolysis were determined and compared. Typical decomposed materials are:
The relationship of the contents of compound 1, the amounts of the decomposed materials, and the added amounts of D-mannitol comprised in between the formulation before the storage and that after the storage at 50° C. for 2 months, is shown in Table 2. The determination was conducted using high performance liquid chromatography (HPLC). The determination conditions of HPLC are as shown below: • Device: Waters 600E,484,712 wisp,74 1,FD20A • Column: J'sphere ODS-L80, S-4μm, 80A 150×4.6 mmφ • Moving phase: water/acetonitrile/acetic acid=100/100/1 • Flow rate: 1.0 ml/min • Injected volume: • 20 μL (at the time for determination of impure materials) • 10 μL (at the time for determination of compound 1) • Detection wavelength • 275 nm • Detection sensibility (AUFS): • 0.64 (at the time for determination of impure materials) • 0.20 (at the time for determination of compound 1) • Solvent for dilution of samples: • water/acetonitrile/acetic acid=100/100/1 • Concentration of samples • 1 mg/ml (at the time for determination of impure materials) • 60.0 μg/ml (at the time for determination of compound 1)

[4] = D-mannitol 0% of the weight of compound 1
[5] = D-mannitol 25% of the weight of compound 1
[6] = D-mannitol 50% of the weight of compound 1
[7] = D-mannitol 100% of the weight of compound 1

SMILES: CC1(C)CC[C@]2(C(=O)[O-])CC[C@]3(COC(=O)/C=C/c4cc(O)ccc4NC(=O)/C=C/C(=O)[O-])C(=CC[C@@H]4[C@@]5(C)CCC(=O)C(C)(C)[C@@H]5CC[C@]43C)[C@@H]2C1.[Na+].[Na+] [compound 1]
- surface tension ([1]; 37.6 mM solution of compound 1 in water, 25° C., Wilhelmy method): 53.9±0.2 mN/m
- decrease in surface tension, pH 9.5 vs pH 7 to 7.5 ([1]; aqueous solutions at various concentrations, pH 9.5 adjusted with sodium hydroxide, FIG. 1): the decrease in the surface tension is inhibited at pH 9.5 more than that at pH7 to 7.5
- foaming by Ross-Miles Foaming Test in relation to pH [2]: the foaming was inhibited depending on the increase in pH
- Content of compound 1 (after storage at 50° C. for 2 months) [3, 4]: 97.1 ± 0.1%
- amount of Other related compounds, After storage at 50° C. for 2 months [3, 4]: 0.66 ± 0.14%
- amount of Other related compounds, Before storage [3, 4]: 0.32 ± 0.02%
- amount of decomposed material compound A, After storage at 50° C. for 2 months [3, 4]: 1.71 ± 0.08%
- amount of decomposed material compound A, Before storage [3, 4]: 0.26 ± 0.02%
- Content of compound 1 (after storage at 50° C. for 2 months) [3, 5]: 97.9 ± 0.4%
- amount of Other related compounds, After storage at 50° C. for 2 months [3, 5]: 0.87 ± 0.02%
- amount of Other related compounds, Before storage [3, 5]: 0.33 ± 0.03%
- amount of decomposed material compound A, After storage at 50° C. for 2 months [3, 5]: 0.44 ± 0.01%
- amount of decomposed material compound A, Before storage [3, 5]: 0.13 ± 0.01%
- Content of compound 1 (after storage at 50° C. for 2 months) [3, 6]: 98.0 ± 0.1%
- amount of Other related compounds, After storage at 50° C. for 2 months [3, 6]: 0.89 ± 0.05%
- amount of Other related compounds, Before storage [3, 6]: 0.32 ± 0.02%
- amount of decomposed material compound A, After storage at 50° C. for 2 months [3, 6]: 0.24 ± 0.01%
- amount of decomposed material compound A, Before storage [3, 6]: 0.11 ± 0.01%
- Content of compound 1 (after storage at 50° C. for 2 months) [3, 7]: 98.3 ± 0.1%
- amount of Other related compounds, After storage at 50° C. for 2 months [3, 7]: 1.24 ± 0.05%
- amount of Other related compounds, Before storage [3, 7]: 0.31 ± 0.01%
- amount of decomposed material compound A, After storage at 50° C. for 2 months [3, 7]: 0.23 ± 0.02%
- amount of decomposed material compound A, Before storage [3, 7]: 0.11 ± 0.01%
